Test results: patent publication US20100298141A1, “SUBSTITUTED PYRIDINE N-OXIDE HERBICIDES” (E. I. DU PONT DE NEMOURS AND COMPANY, priority 2007, published 2010)

Tests used:
[1] = test system: barnyardgrass; assay: Test A pre-/postemergence greenhouse test; type: in vivo, Echinochloa crus-galli; conditions: for Barnyardgrass plant response rating: 0 to 100 scale; for Plant response rating, Barnyardgrass: 0 to 100 scale where 0 is no effect and 100 is complete control
Procedure, shortened: (§1)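 Test compounds in non-phytotoxic solvent with surfactant were applied as a preemergence soil spray to seeded loam/sand pots and, concurrently, postemergence to plants at 2–10 cm, one- to two-leaf stage. About ten days in greenhouse, then injury visually rated against untreated controls.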

[2] = test system: crabgrass; assay: Test A pre-/postemergence greenhouse test; type: in vivo, Digitaria sanguinalis; conditions: for Crabgrass, Large plant response rating: 0 to 100 scale; for Plant response rating, Crabgrass, Large: 0 to 100 scale where 0 is no effect and 100 is complete control
Procedure, shortened: as §1

[3] = test system: wheat; assay: Test A pre-/postemergence greenhouse test; type: in vivo, Triticum aestivum; conditions: for Wheat plant response rating: 0 to 100 scale; for Plant response rating, Wheat: 0 to 100 scale where 0 is no effect and 100 is complete control
Procedure, shortened: as §1

[4] = test system: corn; assay: Test A pre-/postemergence greenhouse test; type: in vivo, Zea mays; conditions: for Corn plant response rating: 0 to 100 scale; for Plant response rating, Corn: 0 to 100 scale where 0 is no effect and 100 is complete control
Procedure, shortened: as §1

[5] = test system: Italian ryegrass; assay: Test C pre-/postemergence test; type: in vivo, Lolium multiflorum
Procedure, shortened: (§2)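 Compounds in a non-phytotoxic solvent with surfactant applied preemergence to seeded pots and, at the same time, postemergence to plants 2–18 cm tall (1- to 4-leaf stage). Paddy tests: pots flooded to 3 cm, compound applied into the water, depth held throughout.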

[6] = test system: Surinam grass; assay: Test C pre-/postemergence test; type: in vivo, Brachiaria decumbens
Procedure, shortened: as §2

[7] = test system: corn; assay: Test C pre-/postemergence test; type: in vivo, Zea mays; conditions: for Plant response rating (0 to 100), Corn: 250 g ai/ha
Procedure, shortened: as §2

[8] = test system: crabgrass; assay: Test C pre-/postemergence test; type: in vivo, Digitaria sanguinalis; conditions: for Plant response rating (0 to 100), Crabgrass, Large: 250 g ai/ha
Procedure, shortened: as §2

[9] = test system: giant foxtail; assay: Test C pre-/postemergence test; type: in vivo, Setaria faberii; conditions: for Plant response rating (0 to 100), Foxtail, Giant: 250 g ai/ha
Procedure, shortened: as §2

[10] = test system: Goosegrass; assay: Test C pre-/postemergence test; type: in vivo, Eleusin indica; conditions: for Plant response rating (0 to 100), Goosegrass: 250 g ai/ha
Procedure, shortened: as §2

[11] = test system: johnsongrass; assay: Test C pre-/postemergence test; type: in vivo, Sorghum halepense; conditions: for Plant response rating (0 to 100), Johnsongrass: 250 g ai/ha
Procedure, shortened: as §2

[12] = test system: morningglory; assay: Test C pre-/postemergence test; type: in vivo, Ipomoea coccinea
Procedure, shortened: as §2

[13] = test system: eastern black nightshade; assay: Test C pre-/postemergence test; type: in vivo, Solanum ptycanthum
Procedure, shortened: as §2

[14] = test system: pigweed; assay: Test C pre-/postemergence test; type: in vivo, Amaranthus retroflexus
Procedure, shortened: as §2

[15] = test system: common (oilseed) sunflower; assay: Test C pre-/postemergence test; type: in vivo, Helianthus annuus
Procedure, shortened: as §2

[16] = test system: velvetleaf; assay: Test C pre-/postemergence test; type: in vivo, Abutilon theophrasti
Procedure, shortened: as §2

[17] = test system: umbrella sedge; assay: Test C flooded paddy test; type: in vivo, Cyperus difformis; conditions: Flood
Procedure, shortened: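 Pots were flooded to 3 cm above the soil surface at treatment, compound applied directly to the paddy water, and that depth held throughout. Plants were kept in a greenhouse for 13 to 15 days, then visually rated against untreated controls.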

[18] = Postemergence, 125 g ai/ha, 0 is no effect, 100 is complete control
[19] = Postemergence, 500 g ai/ha, 0 is no effect, 100 is complete control
[20] = Preemergence, 125 g ai/ha, 0 no effect, 100 complete control
[21] = 62 g ai/ha, Preemergence, scale 0 to 100
[22] = Preemergence, 31 g ai/ha, scale 0 to 100 (0 no effect, 100 complete control)
[23] = preemergence, 125 g ai/ha, scale 0 (no effect) to 100 (complete control)
[24] = 31 g ai/ha, scale 0 to 100 (0 no effect, 100 complete control)
[25] = 62 g ai/ha, scale 0 to 100, 0 no effect, 100 complete control, 13 to 15 days
[26] = 125 g ai/ha, scale 0 to 100, 0 no effect, 100 complete control, 13 to 15 days
[27] = 31 g ai/ha, Preemergence, scale 0 to 100
[28] = 62 g ai/ha, preemergence, scale 0 (no effect) to 100 (complete control)

CC(c1c(C(F)(F)F)nn(C)c1OC(F)F)S(=O)(=O)c1cc(C(C)(C)C)cc[n+]1[O-] (racemic) [Compound 26]
60: Barnyardgrass plant response rating [1, 20]
90: Plant response rating, Barnyardgrass ([1]; Preemergence, 500 g ai/ha) | Crabgrass, Large plant response rating [2, 20] | Plant response rating, Goosegrass [10, 22]
80: Morningglory plant response rating [12, 21] | Velvetleaf plant response rating [16, 21] | Plant response rating, Sedge, Umbrella [17, 25]
10: Wheat plant response rating [3, 18] | Plant response rating, Surinam Grass [6, 22]
98: Goosegrass plant response rating [10, 21]
75: Plant response rating (0 to 100), Foxtail, Giant ([9]; Preemergence)
95: Plant response rating (0 to 100), Corn ([7]; Preemergence) | Plant response rating, Sedge, Umbrella [17, 26] | Plant response rating, Sedge, Umbrella ([17]; 250 g ai/ha, scale 0 to 100, 0 no effect, 100 complete control, 13 to 15 days)
40: Crabgrass, Large plant response rating [2, 19] | Wheat plant response rating [3, 19] | Surinam Grass plant response rating [6, 21] | Plant response rating, Foxtail, Giant [9, 22]
50: Plant response rating, Corn ([4]; Preemergence, 500 g ai/ha)
30: Plant response rating, Velvetleaf [16, 22]
0: Barnyardgrass plant response rating [1, 18] | Barnyardgrass plant response rating [1, 19] | Corn plant response rating [4, 18] | Corn plant response rating [4, 19] | Plant response rating, Ryegrass, Italian [5, 22] | Corn plant response rating [7, 21] | Plant response rating, Corn [7, 22] | Sunflower plant response rating [15, 21] | Plant response rating, Sunflower [15, 22]
65: Ryegrass, Italian plant response rating [5, 21]
70: Plant response rating, Wheat ([3]; Preemergence, 500 g ai/ha) | Corn plant response rating [7, 23] | Foxtail, Giant plant response rating [9, 21] | Plant response rating, Sedge, Umbrella [17, 24]
100: Plant response rating, Crabgrass, Large ([2]; Preemergence, 500 g ai/ha) | Crabgrass, Large plant response rating [8, 21] | Plant response rating, Crabgrass, Large [8, 22] | Plant response rating (0 to 100), Crabgrass, Large ([8]; Preemergence) | Plant response rating (0 to 100), Goosegrass ([10]; Preemergence) | Plant response rating (0 to 100), Johnsongrass ([11]; Preemergence) | Nightshade plant response rating [13, 21] | Plant response rating, Nightshade [13, 22] | Pigweed plant response rating [14, 21]
85: Johnsongrass plant response rating [11, 21] | Plant response rating, Pigweed [14, 22]
20: Crabgrass, Large plant response rating [2, 18] | Wheat plant response rating [3, 20] | Corn plant response rating [4, 20]

CC(c1c(C(F)(F)F)nn(C)c1Cl)S(=O)(=O)c1cccc[n+]1[O-] (centres unmarked) [Compound 10]
100: Barnyardgrass plant response rating [1, 20] | Plant response rating, Barnyardgrass ([1]; Preemergence, 500 g ai/ha) | Plant response rating, Crabgrass, Large ([2]; Preemergence, 500 g ai/ha) | Plant response rating (0 to 100), Surinam Grass ([6]; Preemergence, 250 g ai/ha) | Surinam Grass plant response rating [6, 23] | Crabgrass, Large plant response rating [8, 27] | Crabgrass, Large plant response rating [8, 28] | Plant response rating (0 to 100), Crabgrass, Large ([8]; Preemergence) | Crabgrass, Large plant response rating [8, 23] | Foxtail, Giant plant response rating [9, 28] | Plant response rating (0 to 100), Foxtail, Giant ([9]; Preemergence) | Foxtail, Giant plant response rating [9, 23] | Goosegrass plant response rating [10, 27] | Goosegrass plant response rating [10, 28] | Plant response rating (0 to 100), Goosegrass ([10]; Preemergence) | Goosegrass plant response rating [10, 23] | Johnsongrass plant response rating [11, 28] | Plant response rating (0 to 100), Johnsongrass ([11]; Preemergence) | Johnsongrass plant response rating [11, 23] | Morningglory plant response rating [12, 28] | Plant response rating (0 to 100), Morningglory ([12]; Preemergence, 250 g ai/ha) | Morningglory plant response rating [12, 23] | Plant response rating (0 to 100), Nightshade ([13]; Preemergence, 250 g ai/ha) | Nightshade plant response rating [13, 23] | Pigweed plant response rating [14, 28] | Plant response rating (0 to 100), Pigweed ([14]; Preemergence, 250 g ai/ha) | Pigweed plant response rating [14, 23] | Plant response rating (0 to 100), Sunflower ([15]; Preemergence, 250 g ai/ha)
80: Barnyardgrass plant response rating [1, 18] | Crabgrass, Large plant response rating [2, 18] | Plant response rating, Wheat ([3]; Preemergence, 500 g ai/ha) | Plant response rating, Sedge, Umbrella [17, 25]
70: Wheat plant response rating [3, 19] | Johnsongrass plant response rating [11, 27] | Pigweed plant response rating [14, 27]
95: Plant response rating (0 to 100), Corn ([7]; Preemergence)
20: Ryegrass, Italian plant response rating [5, 27]
75: Plant response rating (0 to 100), Velvetleaf ([16]; Preemergence, 250 g ai/ha)
5: Corn plant response rating [7, 28] | Velvetleaf plant response rating [16, 23]
50: Wheat plant response rating [3, 18] | Plant response rating, Corn ([4]; Preemergence, 500 g ai/ha)
60: Wheat plant response rating [3, 20] | Corn plant response rating [4, 19] | Corn plant response rating [7, 23]
0: Corn plant response rating [4, 20] | Corn plant response rating [7, 27] | Sunflower plant response rating [15, 28] | Velvetleaf plant response rating [16, 28]
40: Corn plant response rating [4, 18] | Ryegrass, Italian plant response rating [5, 28] | Plant response rating, Sedge, Umbrella [17, 24]
98: Plant response rating (0 to 100), Ryegrass, Italian ([5]; Preemergence, 250 g ai/ha) | Surinam Grass plant response rating [6, 28] | Nightshade plant response rating [13, 28]
90: Barnyardgrass plant response rating [1, 19] | Crabgrass, Large plant response rating [2, 19] | Crabgrass, Large plant response rating [2, 20] | Ryegrass, Italian plant response rating [5, 23] | Nightshade plant response rating [13, 27] | Plant response rating, Sedge, Umbrella [17, 26] | Plant response rating, Sedge, Umbrella ([17]; 250 g ai/ha, scale 0 to 100 (0 no effect, 100 complete control))
85: Foxtail, Giant plant response rating [9, 27] | Morningglory plant response rating [12, 27] | Sunflower plant response rating [15, 23]
